Data on 24 compounds can be found in patent US9682995B2, “Amino-substituted isothiazoles” (BAYER PHARMA AKTIENGESELLSCHAFT, priority 2013, dated 2017).

Where only a bound is given, the exact number is not on record here.

In experiment [1] the test system is spindle assembly checkpoint. Description: SAC-Formation - Nocodazole-Induced Assay. Conditions: Homo sapiens; HeLa cells, nocodazole 0.1 μg/ml, 24 h, phosphorylated histone H3 on serine 10. The experiment is classed as cell-based. A digest of the protocol:
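HeLa cells were given nocodazole at 0.1 μg/ml final together with compounds (0.005–20 μM, 0.5% DMSO) for 24 h at 37° C. Mitotic cells were counted by phospho-histone H3 Ser10 immunostaining, with cell number from HOECHST 33342, by high-content imaging. The loss of mitotic cells was fitted with a four-parameter Hill equation.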

The target of experiment [2] is CDK2/CycE (Homo sapiens (Human), UniProt P24941). Kind of experiment: CDK2/CycE kinase assay (TR-FRET). The experiment is classed as biochemical. The following applies: 10 μM ATP; read-out: CDK2 avg (IC50 [mol/l]). A digest of the protocol: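 GST-tagged human CDK2 and GST-CycE from Sf9 cells (~130 ng/ml) were preincubated with compound for 15 min at 22 °C. Reaction with 10 μM ATP and 0.75 μM biotinylated peptide (final) ran 25 min at 22 °C, pH 8.0. Phospho-peptide was read by TR-FRET (665/620 nm ratio, anti-pRB antibody, Eu donor) and normalised to no-enzyme and no-inhibitor controls.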

Consider `CCc1ccccc1NC(=O)c1c(C)nsc1Nc1ccncn1` [Example 2, N-(2-Ethylphenyl)-3-methyl-5-(pyrimidin-4-ylamino)-1,2-thiazole-4-carboxamide], for which the results for the IC50 in experiment [1] and in experiment [2] were 4200 nM and more than 20000 nM, respectively.

In the case of `CCc1ccccc1NC(=O)c1c(C)nsc1Nc1ncccc1C(F)(F)F` [Example 3, N-(2-Ethylphenyl)-3-methyl-5-{[3-(trifluoromethyl)pyridin-2-yl]amino}-1,2-thiazole-4-carboxamide], the results for the IC50 in experiment [1] and in experiment [2] were 3000 nM and more than 20000 nM, respectively. The like results for `CCc1ccccc1NC(=O)c1c(C)nsc1Nc1cc(C#N)ccn1` [Example 4, 5-[(4-Cyanopyridin-2-yl)amino]-N-(2-ethylphenyl)-3-methyl-1,2-thiazole-4-carboxamide] were, in that order, 730 nM and more than 20000 nM. On to `CCc1ccccc1NC(=O)c1c(C)nsc1Nc1nccc(-c2ccccc2)n1` [Example 5, N-(2-Ethylphenyl)-3-methyl-5-[(4-phenylpyrimidin-2-yl)amino]-1,2-thiazole-4-carboxamide], for which the IC50 in experiment [1] is 1200 nM; in experiment [2] it was more than 20000 nM.

Take `Cc1nsc(Nc2nc3c(C(F)(F)F)ccnc3s2)c1C(=O)Nc1ccc(F)c(F)c1` [Example 58, N-(3,4-Difluorophenyl)-3-methyl-5-{[7-(trifluoromethyl)[1,3]thiazolo[5,4-b]pyridin-2-yl]amino}-1,2-thiazole-4-carboxamide]: the IC50 is 280 nM in experiment [1] and more than 20000 nM in experiment [2]. For `COC(=O)c1cnc(Nc2snc(C)c2C(=O)Nc2ccc(F)c(F)c2)cn1` [Example 59, Methyl 5-({4-[(3,4-difluorophenyl)carbamoyl]-3-methyl-1,2-thiazol-5-yl}amino)-pyrazine-2-carboxylate], in that order: 260 nM and more than 20000 nM. For `Cc1nsc(Nc2cnc3cc(C(F)(F)F)ccc3n2)c1C(=O)Nc1ccc(F)c(F)c1` [Example 60, N-(3,4-Difluorophenyl)-3-methyl-5-{[6-(trifluoromethyl)quinoxalin-2-yl]amino}-1,2-thiazole-4-carboxamide], in that order: 40 nM and more than 20000 nM.

As for `Cc1nsc(Nc2cnc3cc(C(F)(F)F)ccc3n2)c1C(=O)Nc1ccc(Cl)c(Cl)c1` [Example 61, N-(3,4-Dichlorophenyl)-3-methyl-5-{[6-(trifluoromethyl)quinoxalin-2-yl]amino}-1,2-thiazole-4-carboxamide], the IC50 in experiment [1] was 310 nM; in experiment [2], more than 20000 nM. For the compound `Cc1nsc(Nc2ccc(C#N)cn2)c1C(=O)Nc1ccc(Cl)c(Cl)c1` [Example 62, 5-[(5-Cyanopyridin-2-yl)amino]-N-(3,4-dichlorophenyl)-3-methyl-1,2-thiazole-4-carboxamide], the IC50 came out at 8.2 nM in experiment [1] and 6500 nM in experiment [2]. For `Cc1nsc(Nc2cncc(-c3ncco3)n2)c1C(=O)Nc1ccc(Cl)c(F)c1` [Example 63, N-(4-Chloro-3-fluorophenyl)-3-methyl-5-{[6-(1,3-oxazol-2-yl)pyrazin-2-yl]amino}-1,2-thiazole-4-carboxamide], in that order: 180 nM and more than 20000 nM. For `Cc1nsc(Nc2cncc(-n3cccn3)n2)c1C(=O)Nc1ccc(F)c(F)c1` [Example 64, N-(3,4-Difluorophenyl)-3-methyl-5-{[6-(1H-pyrazol-1-yl)pyrazin-2-yl]amino}-1,2-thiazole-4-carboxamide], in that order: 97 nM and 8400 nM. For `Cc1nsc(Nc2cnccn2)c1C(=O)Nc1ccc(F)c(F)c1` [Example 65, N-(3,4-Difluorophenyl)-3-methyl-5-(pyrazin-2-ylamino)-1,2-thiazole-4-carboxamide], in that order: 210 nM and more than 20000 nM. In the case of `COC(=O)c1cncc(Nc2snc(C)c2C(=O)Nc2ccc(F)c(F)c2)n1` [Example 66, Methyl 6-({4-[(3,4-difluorophenyl)carbamoyl]-3-methyl-1,2-thiazol-5-yl}amino)-pyrazine-2-carboxylate], the IC50 in experiment [1] was 37 nM; in experiment [2], more than 20000 nM.

For the compound `Cc1nsc(Nc2cncc(-n3cccn3)n2)c1C(=O)Nc1ccc(Cl)c(F)c1` [Example 67, N-(4-Chloro-3-fluorophenyl)-3-methyl-5-{[6-(1H-pyrazol-1-yl)pyrazin-2-yl]amino}-1,2-thiazole-4-carboxamide], the IC50 in experiment [1] came to 12 nM. For `Cc1nsc(Nc2cnc3cc(C(F)(F)F)ccc3n2)c1C(=O)Nc1ccc(Cl)c(F)c1` [Example 68, N-(4-Chloro-3-fluorophenyl)-3-methyl-5-{[6-(trifluoromethyl)quinoxalin-2-yl]amino}-1,2-thiazole-4-carboxamide], the IC50 in experiment [1] is 49 nM; in experiment [2], more than 20000 nM. The like results for `Cc1cncc(Nc2snc(C)c2C(=O)Nc2ccc(F)c(F)c2)n1` [Example 69] were, in that order, 48 nM and more than 20000 nM. For `CNC(=O)c1cncc(Nc2snc(C)c2C(=O)Nc2ccc(F)c(F)c2)n1` [Example 70, 6-({4-[(3,4-Difluorophenyl)carbamoyl]-3-methyl-1,2-thiazol-5-yl}amino)-N-methylpyrazine-2-carboxamide], in that order: 99 nM and more than 20000 nM. The like results for `Cc1nsc(Nc2cncc(Cl)n2)c1C(=O)Nc1ccc(F)c(F)c1` [Example 71, 5-[(6-Chloropyrazin-2-yl)amino]-N-(3,4-difluorophenyl)-3-methyl-1,2-thiazole-4-carboxamide] were, in that order, 94 nM and 8600 nM. Take `COc1cncc(Nc2snc(C)c2C(=O)Nc2ccc(F)c(F)c2)n1` [Example 72, N-(3,4-Difluorophenyl)-5-[(6-methoxypyrazin-2-yl)amino]-3-methyl-1,2-thiazole-4-carboxamide]: the IC50 in experiment [1] was 350 nM; in experiment [2], more than 20000 nM.

With `CCNC(=O)c1cncc(Nc2snc(C)c2C(=O)Nc2ccc(F)c(F)c2)n1` [Example 73, 6-({4-[(3,4-Difluorophenyl)carbamoyl]-3-methyl-1,2-thiazol-5-yl}amino)-N-ethylpyrazine-2-carboxamide], the IC50 is 230 nM in experiment [1] and more than 20000 nM in experiment [2]. The like results for `Cc1nsc(Nc2cnc(Cl)cn2)c1C(=O)Nc1ccc(F)c(F)c1` [Example 74, 5-[(5-Chloropyrazin-2-yl)amino]-N-(3,4-difluorophenyl)-3-methyl-1,2-thiazole-4-carboxamide] were, in that order, 29 nM and more than 20000 nM.

In the case of `CNC(=O)c1cnc(Nc2snc(C)c2C(=O)Nc2ccc(F)c(F)c2)cn1` [Example 75, 5-({4-[(3,4-Difluorophenyl)carbamoyl]-3-methyl-1,2-thiazol-5-yl}amino)-N-methylpyrazine-2-carboxamide], the IC50 in experiment [1] is 81 nM; in experiment [2], more than 20000 nM. For `CCc1cncc(Nc2snc(C)c2C(=O)Nc2ccc(F)c(F)c2)n1` [Example 76, N-(3,4-Difluorophenyl)-5-[(6-ethylpyrazin-2-yl)amino]-3-methyl-1,2-thiazole-4-carboxamide], in that order: 52 nM and more than 20000 nM. Turning to `Cc1nsc(Nc2cncc(C(F)(F)F)n2)c1C(=O)Nc1ccc(F)c(F)c1` [Example 82, N-(3,4-Difluorophenyl)-3-methyl-5-{[6-(trifluoromethyl)pyrazin-2-yl]amino}-1,2-thiazole-4-carboxamide], the IC50 in experiment [1] stood at 21 nM.
